Values joined by “and” are separate entries in the source; they are usually repeats but may differ in a detail not shown here. Equal entries are not always repeated.
Key:
MCF7 Y537S ERα tumors [1] = test: MIND xenograft dose-response study, MCF7 Y537S ERα; type: in vivo, NSG mice; conditions: 5 and 10 mg/kg s.c. 5 days/week, at sacrifice 70 days after treatment initiation, vs vehicle
Experimental: Mouse studies were performed in compliance with an approved Institutional Animal Care and Use Committee protocol at the University of Chicago. To better mimic the progression of ductal lesions to invasive disease, a mammary intraductal (MIND) mouse model was used. NSG (NOD.Cg-Prkdc^scid Il2rg^tm1Wjl/SzJ) mice (Jackson Laboratories) were anesthetized by intraperitoneal injections with a ketamine/xylazine (100/5 mg/kg) mixture in PBS prior to cancer cell injections. Single-cell suspensions of 250,000 WT or mutant MCF7 cells were injected in the mammary ducts of inguinal glands as previously described. Tumor cell growth in situ was followed once weekly or biweekly after injection via luminescence imaging with a Xenogen IVIS 200 instrument in the Integrated Small Animal Imaging Research Resource at the University of Chicago. […] Effects were evaluated in the models expressing WT, Y537S, and D538G ERα for monotherapies, and in the model expressing Y537S ERα for combination therapies.
Treatment was initiated 2 to 3 weeks (dose-response study) or at day 20 (combination study) after cancer cell injections. […] Metastases were evaluated with ex vivo imaging of excised long bones, brains, lungs, and livers and quantified by luciferase activity for the combination study.
Tissues were harvested and fixed in formalin. […] Lung and bone metastases were analyzed using the NSI-Elements software from Nikon. […]

MCF7 D538G ERα tumors = test: MIND xenograft dose-response study, MCF7 D538G ERα; type: in vivo, NSG mice; conditions: for liver metastases (H&E): D538G mice
breast cancer = conditions: PEARL trial, 5 years of LAS; cited from earlier work
MCF7 Y537S ERα tumors [2] = test: MIND xenograft combination study, MCF7 Y537S ERα, bone histology; type: in vivo, NSG mice; conditions: for tumor metastases to the bone (H&E and IHC staining of bone marrow): Y537S model, 5 mg/kg LAS, in contrast to vehicle control, 5 mg/kg
MCF7 WT ERα tumors = test: MIND xenograft dose-response study, MCF7 WT ERα; type: in vivo, NSG mice; conditions: vehicle 4%, p = NS
[3] = lasofoxifene 5 mg/kg, 10 legs examined
[4] = lasofoxifene 10 mg/kg, 10 legs examined
[5] = palbociclib 35 mg/kg, 12 legs examined
[6] = palbociclib 70 mg/kg, 12 legs examined
[7] = fulvestrant 5 mg/mouse, 10 legs examined

Oc1ccc2c(c1)CC[C@H](c1ccccc1)[C@@H]2c1ccc(OCCN2CCCC2)cc1 [Lasofoxifene]
Reduction in tumor weight (MCF7 Y537S ERα tumors [1]): approximately 60% | liver metastases (H&E) (MCF7 D538G ERα tumors; LAS 1, 5, 10 mg/kg s.c. 5 days/week): no liver metastases were observed | Reduction in tumor weight (MCF7 D538G ERα tumors; D538G, 5 and 10 mg/kg s.c. 5 days/week, at sacrifice 70 days after treatment initiation, vs vehicle): ~50% | reduced risk for invasive ER+ breast cancer (breast cancer): 83% | reduced risk for total breast cancers (breast cancer): 79% | tumor metastases to the bone (H&E and IHC staining of bone marrow) (MCF7 Y537S ERα tumors [2]): No metastases were observed | tumor metastases to the bone (H&E and IHC staining of bone marrow) (MCF7 Y537S ERα tumors [2]; listed as LAS): completely blocked | Number of legs with metastases (MCF7 Y537S ERα tumors [2]; [3]): none | Number of legs with necrosis (MCF7 Y537S ERα tumors [2]; [3]): none | Number of legs with metastases (MCF7 Y537S ERα tumors [2]; [4]): none | Number of legs with necrosis (MCF7 Y537S ERα tumors [2]; [4]): none | average percent area of lung metastasis (MCF7 WT ERα tumors; all tested doses (1, 5, 10 mg/kg s.c. 5 days/week)): 0.9–1.5%

CC(=O)c1c(C)c2cnc(Nc3ccc(N4CCNCC4)cn3)nc2n(C2CCCC2)c1=O [Palbociclib]
Number of legs with metastases (MCF7 Y537S ERα tumors [2]; [5]): none | Number of legs with necrosis (MCF7 Y537S ERα tumors [2]; [5]): none | Number of legs with metastases (MCF7 Y537S ERα tumors [2]; [6]): none | Number of legs with necrosis (MCF7 Y537S ERα tumors [2]; [6]): none

C[C@]12CC[C@@H]3c4ccc(O)cc4C[C@@H](CCCCCCCCC[S+]([O-])CCCC(F)(F)C(F)(F)F)[C@H]3[C@@H]1CC[C@@H]2O (stereo partly shown) [Fulvestrant]
liver metastases (H&E) (MCF7 D538G ERα tumors; FUL 5 mg/mouse s.c. once per week): no liver metastases were observed | Number of legs with metastases (MCF7 Y537S ERα tumors [2]; [7]): 2 | Number of legs with necrosis (MCF7 Y537S ERα tumors [2]; [7]): 1 | % necrosis (MCF7 Y537S ERα tumors [2]; fulvestrant 5 mg/mouse, leg with necrosis): 18% | Metastases, % of bone marrow, for each leg with metastasis (MCF7 Y537S ERα tumors [2]; fulvestrant 5 mg/mouse, listed as FUL): 1% and 10% | average percent area of lung metastasis (MCF7 WT ERα tumors; 5 mg/mouse s.c. once per week): 1%
